Data on 3 compounds can be found in ChEMBL document CHEMBL3638467, “Aminomethyl quinolone compounds” (2013).

A word on the IC50: it is the concentration that inhibits the measured activity by half.

The target in this assay is Mitogen-activated protein kinase 8 (Homo sapiens, UniProt P45983). As to the kind of experiment: In Vitro Enzyme Assay: In vitro JNK1 assay.
Mitogen-activated protein kinase 8, sequence (P45983 whole entry): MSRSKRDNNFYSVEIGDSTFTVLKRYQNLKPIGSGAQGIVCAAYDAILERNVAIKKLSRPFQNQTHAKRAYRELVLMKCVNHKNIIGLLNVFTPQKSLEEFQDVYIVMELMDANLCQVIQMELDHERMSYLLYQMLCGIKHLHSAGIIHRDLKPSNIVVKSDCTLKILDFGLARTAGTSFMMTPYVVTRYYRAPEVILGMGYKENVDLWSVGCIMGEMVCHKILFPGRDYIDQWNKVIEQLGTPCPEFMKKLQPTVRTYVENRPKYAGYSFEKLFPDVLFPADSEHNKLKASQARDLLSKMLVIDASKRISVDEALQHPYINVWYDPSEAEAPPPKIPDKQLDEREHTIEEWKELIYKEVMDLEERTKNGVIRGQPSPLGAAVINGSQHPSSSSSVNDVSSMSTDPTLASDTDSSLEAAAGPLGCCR
`O=C(NCc1cn(-c2ccccc2F)c2cc(F)ccc2c1=O)c1cnn(-c2ccccc2)c1` gave an IC50 of 40 nM.

With `COC(=O)c1c(CNC(=O)c2cnc(N3CCOCC3)s2)c(=O)c2ccc(Cl)cc2n1-c1ccccc1`, the IC50 is 8 nM.

With `CC(C)(O)CNC(=O)c1ccc(C(=O)NCc2cn(-c3ccccc3)c3cc(Cl)ccc3c2=O)cc1`, inhibition was half-maximal at 220 nM (IC50). Compared with the last compound, the IC50 is about 28-fold higher.
